Experimental data reported in ChEMBL document CHEMBL5260798, “Structural Analysis of Chemokine Receptor-Ligand Interactions” (J Med Chem, 2017).
One block for each compound: values may come before it.

Tests used:
[1] = target: C-C chemokine receptor type 2 (Homo sapiens, UniProt P41597); test: Binding affinity to CCR2 (unknown origin) assessed as inhibition constant
[2] = target: T1, C-X-C chemokine receptor type 3 (Homo sapiens, UniProt P49682); test: Inhibition of human wild type CXCR3
T1 sequence (P49682 whole entry): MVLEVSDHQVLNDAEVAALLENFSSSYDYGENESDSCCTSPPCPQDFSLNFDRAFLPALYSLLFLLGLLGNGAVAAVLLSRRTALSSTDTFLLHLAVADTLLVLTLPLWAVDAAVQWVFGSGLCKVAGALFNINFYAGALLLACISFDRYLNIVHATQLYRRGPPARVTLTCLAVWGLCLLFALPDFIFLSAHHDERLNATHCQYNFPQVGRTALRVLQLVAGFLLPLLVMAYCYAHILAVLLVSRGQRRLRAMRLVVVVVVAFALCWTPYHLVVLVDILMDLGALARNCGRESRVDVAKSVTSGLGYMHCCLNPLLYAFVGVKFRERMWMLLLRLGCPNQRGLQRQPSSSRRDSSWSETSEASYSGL

[3] = target: T1, C-X-C chemokine receptor type 3; test: Inhibition of human recombinant CXCR3
[4] = Binding affinity to CXCR4-Y251A mutant (unknown origin) assessed as […]; set-up: species or system Homo sapiens
[5] = target: T2, C-X-C chemokine receptor type 2 (Homo sapiens, UniProt P25025); test: Binding affinity to wild type human CXCR2 assessed as dissociation constant
T2 sequence (P25025 whole entry): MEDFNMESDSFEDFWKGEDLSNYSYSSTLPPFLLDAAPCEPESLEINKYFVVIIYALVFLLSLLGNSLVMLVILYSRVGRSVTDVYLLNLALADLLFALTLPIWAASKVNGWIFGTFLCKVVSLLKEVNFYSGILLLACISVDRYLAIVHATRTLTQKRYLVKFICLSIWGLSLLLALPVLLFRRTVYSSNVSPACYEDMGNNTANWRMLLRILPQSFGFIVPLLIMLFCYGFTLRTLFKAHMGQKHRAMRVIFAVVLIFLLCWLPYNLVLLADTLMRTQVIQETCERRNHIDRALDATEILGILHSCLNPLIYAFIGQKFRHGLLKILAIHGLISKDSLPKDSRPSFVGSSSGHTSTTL

[6] = target: C-X-C chemokine receptor type 4 (Homo sapiens, UniProt P61073); test: Binding affinity to CXCR4 (unknown origin) assessed as inhibition constant
[7] = Inhibition of CXCR4-Y251A mutant (unknown origin); set-up: species or system Homo sapiens
[8] = target: C-C chemokine receptor type 8 (Homo sapiens, UniProt P51685); test: Inhibition of CCR8 mutant (unknown origin)
[9] = target: T3, C-C chemokine receptor type 5 (Homo sapiens, UniProt P51681); test: Inhibition of human CCR5
[10] = target: T3, C-C chemokine receptor type 5; test: Inhibition of wild type CCR5 (unknown origin)

C-C chemokine receptor type 8, sequence (P51685 whole entry, looked up, change not shown): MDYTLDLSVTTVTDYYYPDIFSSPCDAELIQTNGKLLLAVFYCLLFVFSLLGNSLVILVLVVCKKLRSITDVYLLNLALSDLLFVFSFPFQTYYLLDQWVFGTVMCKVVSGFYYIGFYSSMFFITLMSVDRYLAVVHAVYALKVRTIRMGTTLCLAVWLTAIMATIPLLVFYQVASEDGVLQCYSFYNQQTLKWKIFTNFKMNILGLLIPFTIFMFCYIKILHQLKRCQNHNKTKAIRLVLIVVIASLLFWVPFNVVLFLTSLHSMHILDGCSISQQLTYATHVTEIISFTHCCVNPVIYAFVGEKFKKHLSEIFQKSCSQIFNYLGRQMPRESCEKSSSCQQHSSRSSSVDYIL
C-X-C chemokine receptor type 4, sequence (P61073 whole entry): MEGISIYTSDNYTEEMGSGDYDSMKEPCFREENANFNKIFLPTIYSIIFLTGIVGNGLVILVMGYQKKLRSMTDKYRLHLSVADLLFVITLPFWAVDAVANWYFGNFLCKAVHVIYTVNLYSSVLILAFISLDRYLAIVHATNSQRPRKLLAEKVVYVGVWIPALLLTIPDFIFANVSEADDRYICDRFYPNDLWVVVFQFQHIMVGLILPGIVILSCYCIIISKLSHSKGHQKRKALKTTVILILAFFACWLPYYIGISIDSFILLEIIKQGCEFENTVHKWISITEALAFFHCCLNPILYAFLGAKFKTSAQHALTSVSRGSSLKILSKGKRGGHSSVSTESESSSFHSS
C-C chemokine receptor type 2, sequence (P41597 whole entry): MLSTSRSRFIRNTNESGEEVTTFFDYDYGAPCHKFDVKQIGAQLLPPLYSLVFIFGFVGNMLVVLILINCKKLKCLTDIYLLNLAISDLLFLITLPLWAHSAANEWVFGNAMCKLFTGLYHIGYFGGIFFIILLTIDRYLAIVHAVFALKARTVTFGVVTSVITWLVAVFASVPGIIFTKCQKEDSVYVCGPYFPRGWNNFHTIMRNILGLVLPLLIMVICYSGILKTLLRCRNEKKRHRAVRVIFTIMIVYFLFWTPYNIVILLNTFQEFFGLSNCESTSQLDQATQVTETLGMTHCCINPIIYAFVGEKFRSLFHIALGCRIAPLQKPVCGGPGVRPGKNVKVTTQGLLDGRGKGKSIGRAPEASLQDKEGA
T3 sequence (P51681 whole entry): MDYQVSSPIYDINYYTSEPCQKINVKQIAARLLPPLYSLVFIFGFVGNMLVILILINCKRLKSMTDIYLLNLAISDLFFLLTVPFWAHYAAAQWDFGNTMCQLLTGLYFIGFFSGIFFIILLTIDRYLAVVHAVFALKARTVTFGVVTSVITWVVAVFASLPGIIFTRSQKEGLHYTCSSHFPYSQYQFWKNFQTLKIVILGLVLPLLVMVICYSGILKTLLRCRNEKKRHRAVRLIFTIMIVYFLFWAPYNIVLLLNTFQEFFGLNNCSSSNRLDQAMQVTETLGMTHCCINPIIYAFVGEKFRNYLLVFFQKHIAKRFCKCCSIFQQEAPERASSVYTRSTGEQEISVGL

Ki [1]: 0.1 µM
SMILES: O=C(/C=C/c1ccc(Cl)c(Cl)c1)NCCCCCN1CCC(c2c[nH]c3ccc(O)cc23)CC1

IC50 [2]: 0.0631 µM | IC50 [3]: 0.0631 µM
SMILES: CCOc1ccc(-n2c([C@@H](C)N(Cc3cccnc3)C(=O)Cc3ccc(F)c(C(F)(F)F)c3)nc3ncccc3c2=O)cc1

SMILES: O=CNC(=C(Cl)Cl)[P+](c1ccccc1)(c1ccccc1)c1ccccc1.[O-][Cl+3]([O-])([O-])[O-]
IC50 [4]: 27 µM

Kd [5]: 1 µM
SMILES: C[C@H](CO)Nc1nc(SCc2cccc(F)c2F)nc2[nH]c(=O)cnc12

Kd [5]: 10000 µM
SMILES: CC[C@@H](NC1C(=O)C(=O)C1Nc1cccc(C(=O)N(C)C)c1O)c1ccc(C)o1 (some centres not stated)

IC50 [2]: 0.0158 µM | IC50 [3]: 0.0158 µM
SMILES: CCNC(=O)c1cnc(N2CCN(C3CCN(Cc4ccc(Cl)cc4)CC3)[C@@H](CC)C2)c(Cl)c1

Ki [6]: 0.18 µM
SMILES: C1CNCCNCCCN(CCCN2CCCNCCNCCCNCC2)CCNC1

IC50 [7]: 0.0002 µM
SMILES: Cc1nnc(C(C)C)n1[C@H]1C[C@H]2CC[C@@H](C1)N2CC[C@H](NC(=O)C1CCC(F)(F)CC1)c1ccccc1 [MARAVIROC]

IC50 [7]: 0.0167 µM
SMILES: CCCCN1C(=O)[C@H](CC2CCCCC2)NC(=O)C12CCN(Cc1ccc(Oc3ccc(C(=O)O)cc3)cc1)CC2

SMILES: COc1ccccc1Oc1cccc(CN2CCC(O)(c3ccccc3C(=O)O)CC2)c1
pIC50 [8]: 7.5

pIC50 [8]: 7.3
SMILES: COc1ccccc1Oc1cccc(CN2CCC(NC(=O)C3CC(=O)Nc4ccccc43)CC2)c1 (configuration not stated)

IC50 [7]: 0.02 µM
SMILES: CC(=O)N1CCC(C(=O)N(CCCN2CCC(Cc3ccc(C(N)=O)cc3)CC2)c2ccc(C)c(Cl)c2)CC1

pIC50 [8]: 7.8
SMILES: CCNS(=O)(=O)c1ccc(OC)cc1C1(O)CCN(Cc2cccc(Oc3ccccc3OC)c2)CC1

IC50 [2]: 1 µM
SMILES: NCCCC[C@H](NC(=O)[C@@H]1Cc2ccccc2CN1C(=O)CCC(=O)c1ccccc1)C(=O)NCC(c1ccccc1)c1ccccc1

IC50 [4]: 0.016 µM
SMILES: CCO/N=C(\c1ccc(Br)cc1)C1CCN(C2(C)CCN(C(=O)c3c(C)cc[n+]([O-])c3C)CC2)CC1 [ANCRIVIROC]

Ki [1]: 0.316 µM
SMILES: Cc1ccc(CN2CC[C@@H](NC(=O)CNC(=O)c3cccc(C(F)(F)F)c3)C2)c(C)c1

Ki [6]: 8 µM
SMILES: C[C@H](NC(=O)[C@H](CCCNC(=N)N)NC(=O)c1ccc(CNCc2ccccn2)cc1)c1cccc2ccccc12

Ki [6]: 2.3 µM
SMILES: C(CCCN1CCCNCCNCCCNCC1)CCN1CCCNCCNCCCNCC1

Ki [6]: 0.85 µM
SMILES: c1cc(CN2CCCNCCNCCCNCC2)cc(CN2CCCNCCNCCCNCC2)n1

IC50 [9]: 2 µM
SMILES: O=C(C1=C(O)C(=O)N(c2nnc(SCc3ccc(Cl)cc3)s2)C1c1cccs1)c1cc2ccccc2o1 (configuration not stated)

IC50 [10]: 0.0025 µM
SMILES: CCCC[C@H]1C[C@@H](N(C)C(C)C)CC[C@H]1NC(=O)CNC(=O)c1cccc(C(F)(F)F)c1

Ki [6]: 0.00061 µM
SMILES: CCCN(CCC)CCCCN(C)Cc1ccc(CN(Cc2ncc[nH]2)Cc2nccn2C)cc1

pIC50 [2]: 4.5 | Ki [1]: 0.0631 µM | IC50 [7]: 0.019 µM
SMILES: Cc1ccc(-c2ccc3c(c2)C=C(C(=O)Nc2ccc(C[N+](C)(C)C4CCOCC4)cc2)CCC3)cc1.[Cl-]
